These results are taken from US6342504B1, “Aromatic heterocyclic derivatives as enzyme inhibitors” (priority 1994, dated 2002).

Structures can show the parent of a compound that is named as a salt. Where two headings read alike, the source gives them in different places. Marks after values point to notes of the source that are not given here.

In assay [1] the test system is FeCl3-induced occlusive thrombus in rat carotid artery. Put plainly: Rat model of FeCl3-induced platelet-dependent arterial thrombosis. In kind it is in vivo. Conditions: for Incidence of Occlusion: n 6. The text has this: Rat Model of FeCl3-induced Platelet-dependent Arterial Thrombosis
Kurz, K. D., Main, B. W., and Sandusky, G. E., Thromb. […] In this model a platelet-rich, occlusive thrombus is formed in a segment of the rat carotid artery treated locally with a fresh solution of FeCl3 absorbed to a piece of filter paper. The FeCl3 is thought to diffuse into the treated segment of artery and cause de-endothelialization of the affected vessel surface. […] The effect of a test compound on the incidence of occlusive thrombus formation following the application of the FeCl3 is monitored by ultrasonic flowtometry and is used as the primary end point. The use of flowtometry to measure carotid artery blood flow, is a modification of the original procedure in which thermal detection of clot formation was employed. Kurz, K. D., Main, B. W., and Sandusky, G. E., Thromb.
Male Harlan Sprague Dawley rats (420-450 g) were acclimated at least 72 hours prior to use and fasted for 12 hours prior to surgery with free access to water. The animals were prepared, anesthetized with Nembutal followed by the insertion of catheters for blood pressure monitoring, drug and anesthesia delivery. The left carotid artery was isolated by making a midline cervical incision followed by blunt dissection and spreading techniques to separate a 2 cm segment of the vessel from the carotid sheath. A silk suture is inserted under the proximal and distal ends of the isolated vessel to provide clearance for the placement of a ultrasonic flow probe (Transonic) around the proximal end of the vessel. The probe is then secured with a stationary arm.
The test compound was administered as a single intravenous bolus at the doses outlined in Table 4 after placement of the flow probe and 5 minutes prior to the thrombogenic stimulus. At t=0, a 3 mm diameter piece of filter paper (Whatman #3) soaked with 10 microliters of a 35% solution of fresh FeCl3 (made up in water) was applied the segment of isolated carotid artery distal to the flow probe. Blood pressure, blood flow, heart rate, and respiration were monitored for 60 minutes.
The incidence of occlusion (defined as the attainment of zero blood flow) was recorded as the primary end point.
This allows a direct comparison of the antithrombotic efficacy of [3-[(benzylsulfonyl)amino]-2-oxo-1,2-dihydropyridyl]acetyl-L-argininal, with other antithrombotic agents which have also been evaluated in this model as described above. Table 5 lists the ED50 values for several well known anticoagulant agents in this model compared to [3-[(benzylsulfonyl)amino]-2-oxo-1,2-dihydropyridyl]acetyl-L-argininal.

Assay [2] deals with clot formation on silk thread in A-V shunt. Put plainly: Multiple extracorporeal (A-V) shunt model in rats utilizing oral dosing. In kind it is in vivo. Particulars: rat, read-out: ED50 value (dose that reduced the clot size by 50%). As to the method: The compounds of Example 10 and 143 were evaluated in a multichamber A-V shunt model in rats. The A-V shunt model is one of the most common and generally used systems to evaluate antithrombotic compounds: Smith, J. R. and White, A. M. Br. J. Pharmacol., 77: 29-38 (1982). In this model a localized clot made up of primarily fibrin with some platelet and macrophage involvement (Shand, R. A. and Smith, J. R. and Wallis, R. B. Thromb. Res., 36: 223-232 (1984)), is formed on an artificial thrombogenic surface (typically a segment of silk or cotton thread) contained in a sialstic chamber which is part of an exteriorized shunt between the carotid artery and jugular vein. The procedure described in this Example is a modified A-V shunt model that allows for oral dosing of test agents and subsequent evaluation of efficacy over a two to three hour window in time.
Briefly, male Harlan Sprague Dawley rats (420-450 g) were acclimated at least 72 hours prior to use. The animals were fasted for 12 hours prior to surgery with free access to water. Unanesthetized animals were grouped into three or four dosage groups (six or seven animals per group) and administered test agents orally via gavage needle, at doses of 1.0, 3.0, 10 and 50 mg/kg for the compound of Example 10, and 3.0, 10 and 30 mg/kg for the Compound of Example 143. Immediately after oral dosing, animals were anesthetized with sodium pentobarbital (Nembutal) given intraperitoneally at a dose of 50 mg/kg body weight, and placed on a isothermal pad to maintain body temperature. The level of anesthesia was monitored every 15 minutes by neuro-response to a tail pinch, respiration and core temperature. The desired depth of surgical anesthesia was maintained by administering subsequent doses (5 mg/kg) intravenously. The left femoral artery was catheterized using standard procedures for blood pressure monitoring and blood sampling, with polyethylene tubing (PE50). The left femoral vein was catheterized with PE50 tubing for delivery of anethestic.
The exteriorized shunts were assembled by connecting two pieces of saline filled 12.5 cm PE90 tubing with a 6 cm piece of PE160 tubing containing a 6 cm piece of silk suture size 3 and clamped with hemostats. A small 0.5 cm portion of the silk thread protrudes from the junction of the chamber with the shunt. The left jugular vein and right carotid artery were catheterized with the ends of the PE90 shunt. The shunt was unclamped and blood allowed to flow from the carotid artery, through the chamber, and exit the shunt via the jugular vein. After 15 minutes, both sides of the chamber were clamped and the suture containing the clot removed following detachment of the arterial end of the chamber. The clot was immediately weighed and recorded. This procedure takes place at predetermined intervals (60, 90, 120, and 150 minutes after oral dosing) to allow assessment of efficacy over a large window in time. Four shunts were placed with flow initiated at 45, 75, 105, and 135 minutes after oral compound administration. Clot weight from the four shunts was the primary endpoint of the protocol. Blood pressure, heart rate core temperature and respiration were monitored continuously. Following termination of the experiment the animals were euthanized with a 120 mg/kg dose of Nembutal. One experiment was performed per animal.
ED50 values were calculated at 60, 90, 120, and 150 minutes after oral dosing of test compound. ED50 is that dose that reduced the clot size by 50%. […]

The term ED50 denotes the midpoint of the dose-response relation.

For the molecule `N=C(N)NCCC[C@@H](C=O)NC(=O)Cn1cccc(NS(=O)(=O)Cc2ccccc2)c1=O` [Example 10, [3-[(benzylsulfonyl)amino]-2-oxo-1,2-dihydropyridyl]acetyl-L-argininal, trifluoroacetate salt], the “Incidence of Occlusion” value in assay [1] (0.3 mg/kg single intravenous bolus 5 minutes prior to FeCl3, monitored 60 minutes) is given as 6/6; in assay [1] (1.0 mg/kg single intravenous bolus 5 minutes prior to FeCl3), 3/6; in assay [1] (3.0 mg/kg single intravenous bolus 5 minutes prior to FeCl3, p ≦ 0.05 from saline control), 1/6*; in assay [1] (5.0 mg/kg single intravenous bolus 5 minutes prior to FeCl3, p ≦ 0.05 from saline control), 0/6*. For the same molecule, the 50% effective dose (ED50) in assay [1] (Rattus norvegicus, read-out: ED50 for thrombus prevention (dose that prevents complete thrombotic occlusion in 50% of animals)) is 1 mg/kg; in assay [2] (1 h, 60 min after oral dose), below 1 mg/kg; in assay [2] (1.5 h, 90 min after oral dose), 2.9 mg/kg; in assay [2] (2 h, 120 min after oral dose), 2.9 mg/kg; in assay [2] (150 min after oral dose), 8.2 mg/kg.
